In US20050203575A1, “Skin microactivation system and method” (Unilever Home & Personal Care USA, Division of Conopco, Inc., priority 2004, published 2005):

Test system: cellular retinoic acid binding protein II (CRABP II)
Experiment: Clinical trial: CRABP II in human epidermis after topical retinol with or without microneedle treatment (Western blotting)
Format: in vivo
Settings: once a day for four days
Excerpt: Ten subjects between the ages of 25 and 50 were recruited into a clinical trial to test the efficacy of microneedles 58 after having given informed consent to a protocol approved by an internal review board. Needles 58 that are acupuncture needles (Seirin, 0.12 mm×30 mm) were fixed in narrow diameter plastic tubes, i.e., positioning collars 60, with adhesive so that needle tips protruded approximately 250 microns beyond the end of positioning collar 60. This arrangement prevented excessive penetration during use. The protocol provided for the application on the skin of the lower back of a vehicle alone or vehicle containing either 0.05% or 0.1% retinol. In vehicle alone sites and 0.05% retinol sites microneedles 58 were applied at a density of 100 strikes per square centimeter. Adhesive rings with an internal area of 1.5 square centimeters were used to define the treatment areas. Microneedle device 10 was held in the operator's hand and lightly impacted on the subject's skin. Aliquots of twenty microliters of treatment solution were applied to the relevant sites immediately after microneedling. Sites were treated once a day for four days. On the fifth day epidermal samples were taken with an abrasive probe and placed in extraction buffer (see above). Samples were analysed with polyacrylamide gel electrophoresis and Western blotting for the presence of cellular retinoic acid binding protein II (CRABP II), a protein considered to be a marker for retinoid activity in skin.

CC1=C(/C=C/C(C)=C/C=C/C(C)=C/CO)C(C)(C)CCC1 [retinol]
CRABP II expression in epidermis, microneedle + 0.05% retinol versus 0.05% retinol alone (microneedles 100 strikes per square centimeter + 0.05% retinol, P<0.05): increased CRABP II expression above that seen with 0.05% retinol alone | CRABP II expression elevation, microneedles + 0.05% retinol versus 0.1% retinol alone (microneedles 100 strikes per square centimeter + 0.05% retinol, statistically significant): greater than that associated with the 0.1% retinol alone treatment | CRABP II expression in epidermis (vehicle alone, 0.05% or 0.1% retinol on skin of lower back, sampled on fifth day): dose-dependent increase in CRABP II
